From ChEMBL document CHEMBL3991601, “The target landscape of clinical kinase drugs” (Science, 2017) come the findings set out here.

Activity calls are given as the source filed them. For most assays here, no stated cut-off is given here; in the data, actives have a measured Kd and inactives only a lower limit.

The target of experiment [1] is Serine/threonine-protein kinase MRCK alpha (Homo sapiens, UniProt Q5VT25).
Experiment [2] has as its target Cyclin-dependent kinase 13 (Homo sapiens, UniProt Q14004).
For experiment [3], the target named is Ephrin type-A receptor 2 (Homo sapiens, UniProt P29317).
Experiment [4] addresses Tyrosine-protein kinase Fyn (Homo sapiens, UniProt P06241).
Experiment [5] has as its target Inosine-5'-monophosphate dehydrogenase 2 (Homo sapiens, UniProt P12268).
Experiment [6] has as its target Midasin (Homo sapiens, UniProt Q9NU22).
The target of experiment [7] is Myosin-14 (Homo sapiens, UniProt Q7Z406).
The target of experiment [8] is T1, Serine/threonine-protein kinase Nek9 (Homo sapiens, UniProt Q8TD19).
T1 sequence (Q8TD19 whole entry): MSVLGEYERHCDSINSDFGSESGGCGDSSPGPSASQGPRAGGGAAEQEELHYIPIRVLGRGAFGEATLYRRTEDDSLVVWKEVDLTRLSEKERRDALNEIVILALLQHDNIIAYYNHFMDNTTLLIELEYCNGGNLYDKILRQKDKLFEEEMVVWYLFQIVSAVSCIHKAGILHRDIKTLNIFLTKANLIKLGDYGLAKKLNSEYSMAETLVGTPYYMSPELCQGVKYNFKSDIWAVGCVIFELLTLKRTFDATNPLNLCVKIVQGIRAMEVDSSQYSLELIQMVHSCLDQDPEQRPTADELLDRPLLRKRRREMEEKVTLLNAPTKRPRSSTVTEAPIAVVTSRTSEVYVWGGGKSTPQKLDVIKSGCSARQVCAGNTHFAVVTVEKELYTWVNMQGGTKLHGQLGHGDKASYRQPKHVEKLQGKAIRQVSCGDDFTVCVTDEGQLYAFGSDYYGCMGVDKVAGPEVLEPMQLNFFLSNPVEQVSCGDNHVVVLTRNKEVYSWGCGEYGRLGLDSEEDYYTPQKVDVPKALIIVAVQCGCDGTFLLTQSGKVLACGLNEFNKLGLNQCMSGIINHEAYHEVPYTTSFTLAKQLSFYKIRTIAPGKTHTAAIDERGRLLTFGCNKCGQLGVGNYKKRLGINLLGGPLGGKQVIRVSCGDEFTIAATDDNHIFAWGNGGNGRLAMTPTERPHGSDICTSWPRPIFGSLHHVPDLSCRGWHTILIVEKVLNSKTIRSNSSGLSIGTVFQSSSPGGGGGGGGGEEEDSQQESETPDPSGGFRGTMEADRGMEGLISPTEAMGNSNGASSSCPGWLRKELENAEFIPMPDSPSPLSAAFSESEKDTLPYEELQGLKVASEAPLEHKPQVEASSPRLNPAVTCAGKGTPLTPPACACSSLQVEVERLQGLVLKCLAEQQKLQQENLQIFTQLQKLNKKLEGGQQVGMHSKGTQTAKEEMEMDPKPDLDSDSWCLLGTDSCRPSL

Experiment [9] concerns the target Serine/threonine-protein kinase PAK 2 (Homo sapiens, UniProt Q13177).
In experiment [10] the target is Serine/threonine-protein kinase N2 (Homo sapiens, UniProt Q16513).
For experiment [11], the target named is Rho-associated protein kinase 1 (Homo sapiens, UniProt Q13464).
Experiment [12] has as its target Ribosomal protein S6 kinase beta-1 (Homo sapiens, UniProt P23443).
Experiment [13] deals with T2, Serine/threonine-protein kinase 4 (Homo sapiens, UniProt Q13043).
T2 sequence (Q13043 whole entry): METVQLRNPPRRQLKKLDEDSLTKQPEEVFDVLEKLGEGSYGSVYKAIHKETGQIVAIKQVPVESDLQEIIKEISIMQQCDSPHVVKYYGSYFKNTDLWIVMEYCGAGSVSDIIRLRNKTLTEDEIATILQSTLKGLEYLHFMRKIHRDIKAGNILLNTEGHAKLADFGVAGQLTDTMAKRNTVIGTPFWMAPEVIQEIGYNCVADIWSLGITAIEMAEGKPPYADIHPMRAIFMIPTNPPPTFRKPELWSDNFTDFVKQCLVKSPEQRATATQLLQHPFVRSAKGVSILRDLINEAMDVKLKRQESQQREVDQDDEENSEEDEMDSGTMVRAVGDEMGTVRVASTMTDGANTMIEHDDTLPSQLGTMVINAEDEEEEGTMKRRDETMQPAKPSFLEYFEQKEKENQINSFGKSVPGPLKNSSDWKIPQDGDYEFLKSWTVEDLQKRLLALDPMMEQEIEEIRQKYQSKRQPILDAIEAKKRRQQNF

Experiment [14] has as its target Activated CDC42 kinase 1 (Homo sapiens, UniProt Q07912).
The target of experiment [15] is RAC-gamma serine/threonine-protein kinase (Homo sapiens, UniProt Q9Y243).

For orientation: Kd means the constant that tells how readily two partners part at equilibrium.

Serine/threonine-protein kinase MRCK alpha, sequence (Q5VT25 whole entry): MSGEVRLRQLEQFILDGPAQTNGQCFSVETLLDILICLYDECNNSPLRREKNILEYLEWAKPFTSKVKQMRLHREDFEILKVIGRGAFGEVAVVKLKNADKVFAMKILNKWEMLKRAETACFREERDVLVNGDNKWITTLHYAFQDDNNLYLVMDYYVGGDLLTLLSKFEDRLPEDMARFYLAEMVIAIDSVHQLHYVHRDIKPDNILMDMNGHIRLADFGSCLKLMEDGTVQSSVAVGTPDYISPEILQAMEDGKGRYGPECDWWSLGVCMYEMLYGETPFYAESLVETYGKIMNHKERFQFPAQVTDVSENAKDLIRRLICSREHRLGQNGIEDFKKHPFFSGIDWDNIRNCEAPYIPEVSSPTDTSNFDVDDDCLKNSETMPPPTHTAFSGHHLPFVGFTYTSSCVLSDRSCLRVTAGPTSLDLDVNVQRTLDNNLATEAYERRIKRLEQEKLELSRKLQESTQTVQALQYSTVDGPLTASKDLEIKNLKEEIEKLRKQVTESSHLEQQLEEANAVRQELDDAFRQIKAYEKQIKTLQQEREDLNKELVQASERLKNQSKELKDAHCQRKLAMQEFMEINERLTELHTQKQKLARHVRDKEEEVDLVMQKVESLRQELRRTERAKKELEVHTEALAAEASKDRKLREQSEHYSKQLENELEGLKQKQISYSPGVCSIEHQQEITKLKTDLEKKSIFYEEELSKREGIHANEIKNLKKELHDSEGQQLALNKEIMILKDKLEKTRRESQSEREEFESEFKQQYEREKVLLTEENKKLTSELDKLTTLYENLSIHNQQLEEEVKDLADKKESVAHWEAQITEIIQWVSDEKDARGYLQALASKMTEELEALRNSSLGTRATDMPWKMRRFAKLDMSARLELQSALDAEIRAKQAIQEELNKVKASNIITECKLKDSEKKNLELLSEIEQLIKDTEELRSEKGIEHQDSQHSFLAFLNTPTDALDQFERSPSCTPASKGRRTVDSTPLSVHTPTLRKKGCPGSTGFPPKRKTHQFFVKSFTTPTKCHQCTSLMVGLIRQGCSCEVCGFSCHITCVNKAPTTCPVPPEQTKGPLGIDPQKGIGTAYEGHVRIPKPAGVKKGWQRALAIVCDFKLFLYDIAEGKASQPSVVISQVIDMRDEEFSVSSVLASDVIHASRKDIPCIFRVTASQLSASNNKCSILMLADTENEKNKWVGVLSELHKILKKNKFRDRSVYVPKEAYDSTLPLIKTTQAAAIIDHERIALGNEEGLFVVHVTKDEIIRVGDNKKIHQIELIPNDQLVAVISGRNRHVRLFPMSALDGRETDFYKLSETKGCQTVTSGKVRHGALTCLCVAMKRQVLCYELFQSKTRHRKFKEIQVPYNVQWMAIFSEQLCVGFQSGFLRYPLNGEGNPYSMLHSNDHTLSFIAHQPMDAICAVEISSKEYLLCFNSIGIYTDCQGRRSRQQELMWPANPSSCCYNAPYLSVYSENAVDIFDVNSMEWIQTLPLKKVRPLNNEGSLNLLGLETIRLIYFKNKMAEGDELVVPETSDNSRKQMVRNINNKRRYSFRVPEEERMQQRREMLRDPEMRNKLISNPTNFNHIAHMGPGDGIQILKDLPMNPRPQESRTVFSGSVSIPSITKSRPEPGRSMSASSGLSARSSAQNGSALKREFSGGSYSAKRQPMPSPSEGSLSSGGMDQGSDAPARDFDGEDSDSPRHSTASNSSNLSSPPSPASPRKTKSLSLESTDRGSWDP
Myosin-14, sequence (Q7Z406 whole entry): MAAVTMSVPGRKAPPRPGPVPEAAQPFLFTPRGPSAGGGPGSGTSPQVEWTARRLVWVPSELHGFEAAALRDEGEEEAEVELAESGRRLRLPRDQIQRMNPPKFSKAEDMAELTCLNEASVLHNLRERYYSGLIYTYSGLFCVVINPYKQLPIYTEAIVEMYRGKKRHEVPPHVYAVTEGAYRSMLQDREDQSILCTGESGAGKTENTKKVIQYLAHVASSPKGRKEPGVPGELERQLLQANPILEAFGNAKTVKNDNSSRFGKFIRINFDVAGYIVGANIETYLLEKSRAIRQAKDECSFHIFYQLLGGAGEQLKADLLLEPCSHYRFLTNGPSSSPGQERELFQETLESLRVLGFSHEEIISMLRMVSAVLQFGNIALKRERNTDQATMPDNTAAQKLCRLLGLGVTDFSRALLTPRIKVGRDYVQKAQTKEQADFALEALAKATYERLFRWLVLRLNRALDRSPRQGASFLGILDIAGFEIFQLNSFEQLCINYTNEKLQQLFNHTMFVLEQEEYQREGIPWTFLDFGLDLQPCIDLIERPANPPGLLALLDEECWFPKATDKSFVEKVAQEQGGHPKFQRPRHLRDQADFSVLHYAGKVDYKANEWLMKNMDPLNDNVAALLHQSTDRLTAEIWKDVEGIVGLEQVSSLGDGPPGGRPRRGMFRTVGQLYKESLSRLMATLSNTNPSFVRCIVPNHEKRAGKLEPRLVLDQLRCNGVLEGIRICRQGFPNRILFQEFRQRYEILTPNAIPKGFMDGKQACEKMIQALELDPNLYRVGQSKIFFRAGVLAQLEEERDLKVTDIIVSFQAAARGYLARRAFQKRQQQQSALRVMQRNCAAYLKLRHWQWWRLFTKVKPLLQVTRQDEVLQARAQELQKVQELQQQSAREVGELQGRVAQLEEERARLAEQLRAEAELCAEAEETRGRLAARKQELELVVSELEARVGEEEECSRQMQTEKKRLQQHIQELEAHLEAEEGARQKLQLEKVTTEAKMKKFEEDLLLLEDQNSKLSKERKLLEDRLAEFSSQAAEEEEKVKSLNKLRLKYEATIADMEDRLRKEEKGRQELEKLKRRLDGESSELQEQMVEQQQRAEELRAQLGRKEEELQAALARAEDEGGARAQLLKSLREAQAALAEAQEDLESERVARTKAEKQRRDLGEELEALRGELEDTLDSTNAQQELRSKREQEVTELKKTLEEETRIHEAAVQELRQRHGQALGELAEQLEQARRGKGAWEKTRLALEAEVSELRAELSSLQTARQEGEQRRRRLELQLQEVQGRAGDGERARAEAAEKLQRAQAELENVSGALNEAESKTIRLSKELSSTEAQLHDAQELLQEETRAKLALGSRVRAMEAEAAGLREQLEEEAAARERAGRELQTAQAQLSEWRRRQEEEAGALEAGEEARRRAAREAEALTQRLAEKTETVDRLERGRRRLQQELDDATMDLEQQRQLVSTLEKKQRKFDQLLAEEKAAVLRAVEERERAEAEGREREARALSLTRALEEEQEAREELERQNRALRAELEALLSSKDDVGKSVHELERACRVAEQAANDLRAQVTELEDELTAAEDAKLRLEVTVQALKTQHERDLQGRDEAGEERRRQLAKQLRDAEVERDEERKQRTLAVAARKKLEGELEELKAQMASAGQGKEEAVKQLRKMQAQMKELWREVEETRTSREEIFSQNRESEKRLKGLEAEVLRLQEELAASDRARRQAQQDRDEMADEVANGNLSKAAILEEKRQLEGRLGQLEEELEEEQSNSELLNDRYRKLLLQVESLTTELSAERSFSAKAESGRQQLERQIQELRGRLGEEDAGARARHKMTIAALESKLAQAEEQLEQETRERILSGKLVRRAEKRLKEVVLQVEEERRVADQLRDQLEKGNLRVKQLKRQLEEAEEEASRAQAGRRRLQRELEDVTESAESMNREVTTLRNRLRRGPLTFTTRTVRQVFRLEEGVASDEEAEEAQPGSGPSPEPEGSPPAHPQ
Tyrosine-protein kinase Fyn, sequence (P06241 whole entry): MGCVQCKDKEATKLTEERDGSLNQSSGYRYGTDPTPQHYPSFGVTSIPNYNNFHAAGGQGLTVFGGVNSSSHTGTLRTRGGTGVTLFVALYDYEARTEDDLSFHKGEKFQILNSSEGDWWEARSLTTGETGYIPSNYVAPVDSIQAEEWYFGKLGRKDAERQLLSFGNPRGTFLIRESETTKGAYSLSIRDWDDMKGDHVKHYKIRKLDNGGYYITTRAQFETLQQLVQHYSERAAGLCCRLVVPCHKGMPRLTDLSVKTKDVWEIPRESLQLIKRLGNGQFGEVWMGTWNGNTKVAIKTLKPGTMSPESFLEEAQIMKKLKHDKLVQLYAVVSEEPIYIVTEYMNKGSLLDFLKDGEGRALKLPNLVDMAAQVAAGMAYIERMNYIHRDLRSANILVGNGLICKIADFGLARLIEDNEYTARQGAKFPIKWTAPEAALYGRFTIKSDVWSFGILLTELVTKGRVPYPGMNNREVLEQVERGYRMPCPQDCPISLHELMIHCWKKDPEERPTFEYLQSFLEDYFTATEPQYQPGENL
Ribosomal protein S6 kinase beta-1, sequence (P23443 whole entry): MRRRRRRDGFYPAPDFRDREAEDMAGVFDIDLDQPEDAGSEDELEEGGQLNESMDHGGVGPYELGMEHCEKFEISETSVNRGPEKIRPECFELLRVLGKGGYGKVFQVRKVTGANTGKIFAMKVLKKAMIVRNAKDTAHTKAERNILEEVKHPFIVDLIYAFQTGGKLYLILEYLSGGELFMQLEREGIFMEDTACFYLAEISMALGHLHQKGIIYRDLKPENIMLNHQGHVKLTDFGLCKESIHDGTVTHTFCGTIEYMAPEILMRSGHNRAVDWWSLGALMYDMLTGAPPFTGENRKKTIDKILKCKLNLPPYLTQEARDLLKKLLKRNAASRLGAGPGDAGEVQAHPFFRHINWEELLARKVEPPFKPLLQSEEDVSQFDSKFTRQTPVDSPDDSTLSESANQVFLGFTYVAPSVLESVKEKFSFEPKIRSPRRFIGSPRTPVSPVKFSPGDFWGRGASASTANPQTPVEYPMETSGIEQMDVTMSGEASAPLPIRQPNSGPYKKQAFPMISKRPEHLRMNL

With `C[C@@H](Oc1cc(C(=O)Nc2ccc(C(=O)N3CCN(C)CC3)cc2)nnc1N)c1c(Cl)ccc(F)c1Cl`, the Kd in [1], in [2], in experiment [3], in experiment [4], in experiment [5] and in experiment [6] was > 30 µM (inactive) in each case. Besides, the Kd in [7], in [8], in experiment [9], in experiment [10], in experiment [11] and in experiment [12] was > 30 µM (inactive) in each case. Moreover, the Kd in experiment [13] and in [14] was > 30 µM (inactive) throughout.
Turning to `CCNC(=O)C#Cc1ccc2c(c1)NC(=O)/C2=C(\Nc1ccc(CN(C)C)cc1)c1ccccc1`, the Kd was > 30 µM (inactive) in experiment [1]; > 30 µM (inactive) in experiment [2]; > 30 µM (inactive) in [3]; 0.187 µM (active) in experiment [4]; > 30 µM (inactive) in [5]; 1.32 µM in [6]. Besides, the Kd in experiment [7], in experiment [8], in experiment [9], in experiment [10], in experiment [11] and in [12] was > 30 µM (inactive) each time. The Kd in experiment [13] was 1.26 µM (active); in [14], 1.55 µM (active).
Consider `Cc1cc(C(=O)NOCCO)c(Nc2ccc(I)cc2F)n(C)c1=O` [AZD-8330], for which the Kd in experiment [15], in [1], in experiment [2], in experiment [3], in [4] and in experiment [5] was > 30 µM (inactive) throughout. For the same compound, the Kd in [6], in [7], in [8], in experiment [9], in experiment [10] and in experiment [11] was > 30 µM (inactive) in each case. Moreover, the Kd in experiment [13] and in experiment [14] was > 30 µM (inactive) in each case.
On to `Cc1nc2cc(-n3ncc(C(=O)c4cc5ccccc5[nH]4)c3N)ccc2[nH]1` [FGFR INHIBITOR DEBIO 1347], for which the Kd in experiment [15], in experiment [1], in experiment [2], in [3], in experiment [4] and in experiment [5] was > 30 µM (inactive) in each case. Further, the Kd in experiment [6], in experiment [8], in experiment [9], in experiment [10], in experiment [11] and in experiment [13] was > 30 µM (inactive) each time. Besides, in [14], the Kd was > 30 µM (inactive).
Regarding `CCn1cc(-c2ccnc3[nH]c(-c4cccc(CN(C)C)c4)cc23)c(-c2ccc(NC(=O)N(C)C)cc2)n1` [GSK-1070916], the dissociation constant (Kd) was 3.29 µM (active) in experiment [15]; > 30 µM (inactive) in experiment [1]; > 30 µM (inactive) in experiment [3]; > 30 µM (inactive) in [4]; > 30 µM (inactive) in experiment [5]; > 30 µM (inactive) in experiment [6]. Also, the Kd in [7], in [8], in experiment [9], in experiment [10], in experiment [11] and in experiment [13] was > 30 µM (inactive) each time. The Kd in experiment [14] was > 30 µM (inactive).
With `CCCCCCCCCCCCCCCCCCOP(=O)([O-])OC1CC[N+](C)(C)CC1` [PERIFOSINE], the Kd in experiment [15], in [1], in experiment [2], in [3], in experiment [4] and in [5] was > 30 µM (inactive) throughout. Also, the Kd in experiment [6], in [7], in [8], in [9], in experiment [10] and in experiment [11] was > 30 µM (inactive) throughout. Also, the Kd in experiment [13] and in experiment [14] was > 30 µM (inactive) in each case.
As for `Cc1nc(Nc2n[nH]c3c2CN(C(=O)N[C@H](CN(C)C)c2ccccc2)C3(C)C)c2sccc2n1` [PF-03758309], the Kd is > 30 µM (inactive) in experiment [15]; > 30 µM (inactive) in experiment [1]; > 30 µM (inactive) in experiment [2]; > 30 µM (inactive) in [3]; 1.23 µM (active) in experiment [4]; > 30 µM (inactive) in experiment [6]. The Kd in [7] was > 30 µM (inactive); in experiment [8] it was > 30 µM (inactive); in experiment [9], > 30 µM (inactive); in experiment [10], > 30 µM (inactive); in experiment [11] it was > 30 µM (inactive); in experiment [13] it was 4.32 µM (active). Also, the Kd in [14] is > 30 µM (inactive).
For the compound `N#CC1(c2ccc(NC(=O)c3cccnc3NCc3ccncc3)cc2)CCCC1` [RIVOCERANIB], the Kd in [15], in experiment [1], in experiment [2], in [3], in [4] and in experiment [5] was > 30 µM (inactive) in each case. Besides, the Kd in experiment [6], in experiment [7], in experiment [8], in experiment [9], in [10] and in experiment [12] was > 30 µM (inactive) in each case. For the same compound, the Kd in [13] and in [14] was > 30 µM (inactive) throughout.
As for `O=c1[nH]ccc2cc(OC3CCNCC3)ccc12` [SAR-407899 FREE BASE], the Kd in experiment [15] was > 30 µM (inactive); in [1] it was 0.01 µM (active); in [2], > 30 µM (inactive); in experiment [3], > 30 µM (inactive); in [4] it was > 30 µM (inactive); in experiment [5], > 30 µM (inactive). Also, the Kd is > 30 µM (inactive) in experiment [6]; > 30 µM (inactive) in experiment [7]; > 30 µM (inactive) in experiment [8]; > 30 µM (inactive) in [9]; 0.008 µM (active) in experiment [10]; > 30 µM (inactive) in experiment [12]. Also, the Kd in experiment [13] and in experiment [14] was > 30 µM (inactive) in each case.
`O=C(Cc1ccc(-c2ccc(OCCN3CCOCC3)cc2)cn1)NCc1ccccc1` [TIRBANIBULIN]: the Kd in [15], in experiment [1], in [2], in [3], in experiment [4] and in experiment [5] was > 30 µM (inactive) throughout. The Kd in experiment [6], in experiment [7], in [8], in [9], in experiment [10] and in [12] was > 30 µM (inactive) throughout. In addition, the Kd in experiment [13] and in [14] was > 30 µM (inactive) in each case.
